Patent US20230357179A1, “RAF KINASE INHIBITORS AND METHODS OF USE THEREOF” (Deciphera Pharmaceuticals, LLC, priority 2021, published 2023)

How the values were obtained:
A-Raf kinase [1] = biological target: T1, A-Raf kinase (Homo sapiens, UniProt P10398, Y301D/Y302D); assay: Biochemical assay for A-Raf.1 (coupled pyruvate kinase/lactate dehydrogenase); conditions: read-out: ARAF.1 IC50
T1 construct: purchased Sigma
Outline: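 IC50 values came from four-parameter sigmoidal fits of percent inhibition, using rates over the 4 to 5 h window of continuous A340 readings (6 h, 30° C). The coupled PK/LDH system tracked NADH oxidation during 5.55 nM A-Raf activity on 30.1 nM MEK at 1 mM ATP, buffer pH 7.5.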

A375 cells = assay: A375 cell proliferation assay (1), resazurin, 96-well; format: cell-based; conditions: Homo sapiens, A-375, inhibition of cell proliferation
Outline: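 Viability was read by resazurin fluorescence at 540 nm excitation and 600 nm emission, using a 440 μM solution added for 5–6 h at the end of culture. IC50 came from the curve fit.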

A-Raf kinase [2] = biological target: T1, A-Raf kinase; assay: Biochemical assay for A-Raf.2 (coupled pyruvate kinase/lactate dehydrogenase); conditions: read-out: ARAF.2 IC50
Experimental: Biochemical Assay for A-Raf.2
(§1) Activity of A-Raf kinase (SEQ. ID No: 1) was determined spectroscopically using a coupled pyruvate kinase/lactate dehydrogenase assay that continuously monitors the ATP hydrolysis-dependent oxidation of NADH (e.g., Schindler et al., Science, 2000, 289, 1938-1942). Assays were conducted in 384-well plates (25 μL final volume) using 20 nM A-Raf (Eurofins), 1.5 units pyruvate kinase, 2.1 units lactate dehydrogenase, 1 mM phosphoenol pyruvate, 0.7 mM NADH, 100 nM MEK (SignalChem), and 1 mM ATP in assay buffer (100 mM Tris, pH 7.5, 15 mM MgCl2, 0.5 mM DTT, 0.1% octyl-glucoside, 0.002% (w/v) BSA, and 0.002% Triton X-100). Inhibition of A-Raf was measured by adding serial diluted test compound (final assay concentration of 1% DMSO). A decrease in absorption at 340 nm was monitored hourly for 4 h at 30° C. on a multi-mode microplate reader (BioTek). The reaction rate was calculated using the 3 to 4 h time frame. The reaction rate at each concentration of compound was converted to percent inhibition using controls (i.e., reaction with no test compound and reaction with a known inhibitor) and IC50 values were calculated by fitting a four-parameter sigmoidal curve to the data using Prism (GraphPad software).

B-Raf (V600E) kinase = biological target: T2, B-Raf (V600E) kinase (Homo sapiens, UniProt P15056, V600E); assay: Biochemical assay for B-Raf (V600E).2 (coupled pyruvate kinase/lactate dehydrogenase); conditions: read-out: BRAF V600E.2 IC50
T2 construct: B-Raf (V600E) residues 416-766 with a; GST (N); purchased SignalChem
T2 sequence (P15056 416-766 V600E): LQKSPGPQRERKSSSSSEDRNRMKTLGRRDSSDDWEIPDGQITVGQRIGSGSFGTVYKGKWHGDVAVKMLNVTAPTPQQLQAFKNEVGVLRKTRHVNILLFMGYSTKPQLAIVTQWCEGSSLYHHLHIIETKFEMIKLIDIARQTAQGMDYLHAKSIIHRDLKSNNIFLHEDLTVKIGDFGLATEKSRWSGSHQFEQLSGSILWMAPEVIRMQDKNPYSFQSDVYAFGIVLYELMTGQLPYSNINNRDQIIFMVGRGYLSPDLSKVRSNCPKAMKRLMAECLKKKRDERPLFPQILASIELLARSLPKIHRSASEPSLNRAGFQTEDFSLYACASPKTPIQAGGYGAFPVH
Experimental: Biochemical Assay for B-Raf (V600E).2
as §1, with “of B-Raf (V600E)” for “of A-Raf kinase”, “ID NO: 4) kinase” for “ID No: 1)”, “using 0.5” for “using 20”, “nM B-Raf (deCode),” for “nM A-Raf (Eurofins),”, “of B-Raf (V600E)” for “of A-Raf”

T1 sequence (P10398 with tags, fused parts or gaps Y301D/Y302D): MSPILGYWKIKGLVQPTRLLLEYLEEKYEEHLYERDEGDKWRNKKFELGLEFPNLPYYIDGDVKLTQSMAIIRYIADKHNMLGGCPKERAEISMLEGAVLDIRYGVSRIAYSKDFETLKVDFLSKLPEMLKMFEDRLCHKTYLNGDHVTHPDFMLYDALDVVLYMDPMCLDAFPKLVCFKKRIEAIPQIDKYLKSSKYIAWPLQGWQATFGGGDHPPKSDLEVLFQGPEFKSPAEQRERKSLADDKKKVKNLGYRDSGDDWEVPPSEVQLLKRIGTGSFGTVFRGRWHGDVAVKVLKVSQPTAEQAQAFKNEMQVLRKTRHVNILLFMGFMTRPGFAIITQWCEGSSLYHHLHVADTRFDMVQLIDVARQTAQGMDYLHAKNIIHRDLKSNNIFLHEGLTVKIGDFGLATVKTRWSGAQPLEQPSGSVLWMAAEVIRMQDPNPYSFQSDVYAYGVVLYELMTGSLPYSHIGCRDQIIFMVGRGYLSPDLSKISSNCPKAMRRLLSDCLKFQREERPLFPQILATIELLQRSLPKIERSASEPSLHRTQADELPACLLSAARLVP

Row | Compound | IC50 (A-Raf kinase [1]) [nM] | IC50 (A375 cells) [nM] | IC50 (A-Raf kinase [2]) [nM] | IC50 (B-Raf (V600E) kinase) [nM]
1 | COC(=O)Nc1cc(-c2cccc(-c3cc(NC(=O)NCCC(C)(C)OC)c(F)cc3C)c2)ccn1 [Example 85] | > 1000 | 100 to 500 |  | 
2 | Cc1cc(F)c(NC(=O)NCCC2(C)CC2)cc1-c1cc(OCCO)nc(-c2ccnc3[nH]ncc23)c1 [Example 87] | 500 to 1000 | 100 to 500 |  | 
3 | Cc1cc(F)c(NC(=O)N[C@@H]2CC[C@H](F)C2)cc1-c1cc(OCCO)nc(-c2ccnc3[nH]ncc23)c1 [Example 88] | > 1000 | 1000 to 10000 |  | 
4 | Cc1cc(F)c(NC(=O)NCC[C@@H]2CCO2)cc1-c1cc(OCCO)nc(-c2ccnc3[nH]ncc23)c1 [Example 89] | > 1000 | 1000 to 10000 |  | 
5 | COC(C)(C)CCNC(=O)Nc1cc(-c2cc(OCCO)nc(-c3ccnc4[nH]ccc34)c2)c(C)cc1F [Example 90] | > 1000 | 1000 to 10000 |  | 
6 | COC(C)(C)CCNC(=O)Nc1cc(-c2cc(OCCO)nc(-c3ccnc4[nH]ncc34)c2)c(C)cc1F [Example 91] | > 1000 | 500 to 1000 |  | 
7 | Cc1cc(F)c(NC(=O)N2CCC(C)(C#N)CC2)cc1-c1cc(OCCO)nc(-c2ccnc3[nH]ncc23)c1 [Example 92] | > 1000 | 1000 to 10000 |  | 

Further lines, results first:

Row | IC50 (A-Raf kinase [1]) [nM] | IC50 (A375 cells) [nM] | IC50 (A-Raf kinase [2]) [nM] | IC50 (B-Raf (V600E) kinase) [nM] | Compound
8 |  | 1000 to 10000 | > 1000 | 100 to 500 | CNC(=O)c1cc(-c2cc(-c3cc(NC(=O)N4CC[C@H](C(F)(F)F)C4)ccc3C)ccn2)ccn1 [Example 215]
9 |  |  | > 1000 | 100 to 500 | CNC(=O)c1cc(-c2cncc(-c3cc(NC(=O)N4CC[C@H](C(F)(F)F)C4)ccc3C)c2)ncn1 [Example 220]
10 |  | 100 to 500 | 100 to 500 | ≤ 100 | COC(=O)Nc1cc(-c2cncc(-c3cc(NC(=O)N4CC[C@H](C(F)(F)F)C4)ccc3C)c2)ncn1 [Example 224]
11 |  |  | > 1000 | ≤ 100 | CNC(=O)c1cc(-c2cc(-c3cc(NC(=O)N4CC[C@H](C(C)C)C4)ccc3C)ccn2)ccn1 [Example 225]
12 |  |  | > 1000 | ≤ 100 | CNC(=O)c1cc(-c2cncc(-c3cc(NC(=O)N4CC[C@H](C(C)C)C4)ccc3C)c2)ncn1 [Example 226]
13 |  |  | ≤ 100 | ≤ 100 | Cc1ccc(NC(=O)N2CC[C@H](C)C2)cc1-c1cncc(-c2cc(NC(=O)C3CC3)ncn2)c1 [Example 227]
14 |  |  | > 1000 | ≤ 100 | CNC(=O)c1cc(-c2cncc(-c3cc(NC(=O)N4CC[C@H](C(F)(F)F)C4)ccc3C)c2)ccn1 [Example 228]
15 |  |  | > 1000 | ≤ 100 | CNC(=O)c1cc(-c2cncc(-c3cc(NC(=O)N4CC[C@H](C(C)C)C4)ccc3C)c2)ccn1 [Example 229]
